Patent US20260215432A1, “ANTIMICROBIAL CONJUGATED OLIGOELECTROLYTES AND METHODS THEREOF” (National University of Singapore, priority 2023, published 2026)
≈ marks a conversion by molar mass, not a printed value. Where “and” joins values, the source holds several entries; their conditions need not be identical. Equal entries are not always repeated. Where two headings read alike, the source gives them in different places.

How the values were obtained:
[1] = test system: A. baumanii (ATCC 17978); assay: MIC, broth microdilution in CA-MHB; assay type: cell-based; conditions: for MIC AB: CA-MHB
Protocol: (§1) Antimicrobial activity was screened against a range of pathogens made up of clinically relevant ESKAPE pathogens by determination of the minimum inhibitory concentration (MIC) in cation-adjusted Mueller-Hinton broth (CA-MHB).
(§2) Minimum inhibitory concentrations of COEs were determined through a broth microdilution method in accordance with the Clinical and Laboratory Standards Institute (CLSI) guidelines M07-A10. A single bacterial colony was isolated from an overnight culture and grown to mid-log phase (OD600~0.8). Compounds were prepared as a stock solution in DMSO and diluted in a sterile flat-bottom 96-well plate in CA-MHB. Subsequent concentrations were prepared by two-fold dilution of the initial solution. An equivalent volume of bacteria was added to the compound to a final concentration of 5×10^5 cfu/mL. Plates were incubated at 37° C. for 16-18 hours, and read at OD600 using a microplate reader (TECAN Spark®). […] MIC values were determined for each compound in triplicate.

[2] = test system: Methicillin-resistant S. aureus (ATCC BAA1717); assay: MIC, broth microdilution in CA-MHB; assay type: cell-based; conditions: for MIC MRSA: CA-MHB
Protocol: as §1, §2

[3] = test system: E. coli. K12 (ATCC 10798); assay: MIC, broth microdilution in CA-MHB; assay type: cell-based; conditions: for MIC EC: CA-MHB
Protocol: as §1, §2

[4] = test system: S. aureus (ATCC 29213); assay: MIC, broth microdilution in CA-MHB; assay type: cell-based
Protocol: as §1, §2

[5] = test system: E. faecalis OG1RF (ATCC 47077); assay: MIC, broth microdilution in CA-MHB; assay type: cell-based; conditions: CA-MHB
Protocol: as §1, §2

[6] = test system: K. pneumoniae (carbapenem-resistant Enterobacterales) (ATCC BAA1705); assay: MIC, broth microdilution in CA-MHB; assay type: cell-based; conditions: CA-MHB
Protocol: as §1, §2

[7] = test system: P. aeruginosa (ATCC47085); assay: MIC, broth microdilution in CA-MHB; assay type: cell-based; conditions: CA-MHB
Protocol: as §1, §2

[8] = test system: E. facium (ATCC 19434); assay: MIC, broth microdilution in CA-MHB; assay type: cell-based; conditions: for MIC FAC: CA-MHB
Protocol: as §1, §2

[9] = test system: A549 (lung epithelial cells); assay: Cytotoxicity against mammalian cell line; assay type: cell-based
Protocol: The cytotoxicity of the TPP COEs was also tested against a mammalian cell line (A549).

[10] = test system: P. aeruginosa; assay: Resistance development by serial passaging at 0.5× MIC; assay type: cell-based
Protocol: (§3) The non-specific action of membrane-active antibiotics lends itself to minimal development of resistance development due to the large metabolic burden involved, unlike traditional antibiotics with a well-defined enzymatic target. Based on this premise, we passaged bacteria incubated with DM6P, or ciprofloxacin (control), at 0.5× MIC to investigate the adaptation of bacteria towards external antibiotic stress. As a control, treatment of MRSA with ciprofloxacin gave rise to antibiotic-resistant mutants within 4 passages, see FIG. 4a. […] Combined with its broad spectrum of activity, this feature opens opportunities for the use of COE antimicrobial agents to address polymicrobial infections with a lower rate of emerging antibiotic resistance.

[11] = test system: MRSA; assay: as above; assay type: cell-based, S. aureus
Protocol: as §3

[12] = test system: M. abscesses (ATCC 19977); assay: MIC against mycobacterium in Middlebrook 7H9 broth; assay type: cell-based, M. abscessus; conditions: for MIC: Mycobacteroides abscessus, ATCC19977
Protocol: We also examined non-tuberculous mycobacteria (NTM). These are opportunistic pathogens that are rising in clinical significance due to their increasing prevalence and treatment difficulty. The membrane of Mycobacterium is inherently a greater antibiotic permeability barrier due to its high lipid content relative to other pathogens and long-tailed mycolic acids that contributed to its high lipophilic character. The antimicrobial activity of the TPP analogues were also evaluated against Mycobacterium in Middlebrook 7H9 broth.

[13] = phosphate-buffered saline; below 10 μg mL^−1 estimated by turbidimetric screening
Protocol: The solubility of all the TPP derivatives was determined in phosphate-buffered saline (PBS) (Table S3).

[14] = test system: PA; assay: MIC in physiological-mimicking environments (MHB); assay type: cell-based, P. aeruginosa
Excerpt: (§4) The complexities of the physiological environment often influence drug activity, particularly when cations in solution are implicated in their oligomerization-dependent mechanisms of action, such as for daptomycin. Binding of free drug to plasma proteins effectively reduces the available free concentration of the drug capable of killing bacteria, resulting in lower observable activity. We tested MIC values of DM4P and DM6P in the presence of human serum albumin (40 g L^−1) and high salt concentrations (Table 4). Under these conditions, the antimicrobial activity was minimally affected by these environmental factors, with MICs remaining within a 2-fold level.

[15] = test system: SA; assay: MIC in physiological-mimicking environments (MHB); assay type: cell-based, S. aureus
Excerpt: as §4

Compound | MIC AB [1] [µg/mL] | MIC MRSA [2] [µg/mL] | MIC ([2]; towards MRSA, Table 3) [µg/mL] | MIC EC [3] | MIC SA [4] [µg/mL] | MIC FAE [5] [µg/mL] | MIC KP [6] [µg/mL] | MIC PA [7] [µg/mL] | MIC FAC [8] [µg/mL] | IC50 [9] [µg/mL] | solubility in PBS [13] [µg/mL] | also measured
COc1cc(/C=C/c2ccc(OCCCCCC[P+](CCCO)(CCCO)CCCO)c(OC)c2)ccc1OCCCCCC[P+](CCCO)(CCCO)CCCO.[I-].[I-] [DM6THPP] | >64 | >64 | > 64 | >64 µg/mL | >64 | >64 | >64 | >64 | >64 | >1024 | – | –
O=C(O)c1cn(C2CC2)c2cc(N3CCNCC3)c(F)cc2c1=O [ciprofloxacin, reference compound] | – | – | – | – | – | – | – | – | – | – | – | resistance development [10]: this development occurred at a slower rate; passages until antibiotic-resistant mutants arise [11]: ≤ 4 passages
NCC[C@H](O)C(=O)N[C@@H]1C[C@H](N)[C@@H](O[C@H]2O[C@H](CN)[C@@H](O)[C@H](O)[C@H]2O)[C@H](O)[C@H]1O[C@H]1O[C@H](CO)[C@@H](O)[C@H](N)[C@H]1O [Amikacin, reference compound] | – | – | – | – | – | – | – | – | – | – | – | MIC [12]: 8 µg/mL (≈ 13.7 µM)
C[N+](C)(C)CCCCOc1ccc(/C=C/c2ccc(OCCCC[N+](C)(C)C)cc2)cc1.[I-].[I-] [Compound D4, reference compound] | >64 | >64 | > 64 | > 64 µg/mL and 128 µg/mL | >64 | 128 | >64 | >64 | 64 | 548 | – | –
C(=C\c1ccc(OCCCCCCCC[P+](c2ccccc2)(c2ccccc2)c2ccccc2)cc1)/c1ccc(OCCCCCCCC[P+](c2ccccc2)(c2ccccc2)c2ccccc2)cc1.[I-].[I-] [Compound D8P] | – | – | – | – | – | – | – | – | – | – | 4 | –
Polymyxin B [reference compound] | 4 | – | – | 1 µg/mL | – | – | 2 | 2 | – | – | – | –
COc1cc(/C=C/c2ccc(OCCCCCCCC[P+](c3ccccc3)(c3ccccc3)c3ccccc3)c(OC)c2)ccc1OCCCCCCCC[P+](c1ccccc1)(c1ccccc1)c1ccccc1.[I-].[I-] [DM8P] | >4 | 4 | 4 | >4 µg/mL | >4 | 1 | >4 | >4 | 1 | 10 | 4 | MIC M. abscesses [12]: 64 µg/mL
C[N+](C)(C)CCCCCCOc1ccc(/C=C/c2ccc(OCCCCCC[N+](C)(C)C)cc2)cc1.[I-].[I-] [Compound D6, reference compound] | >64 | 32 | 32 | 16 µg/mL | 32 | 32 | >64 | >64 | 8 | 39 | – | –
CC(=O)NC[C@H]1CN(c2ccc(N3CCOCC3)c(F)c2)C(=O)O1 [Linezolid, reference compound] | – | – | – | – | – | – | – | – | – | – | – | MIC [12]: 8 µg/mL (≈ 23.7 µM)
C(=C\c1ccc(OCCCCCC[P+](c2ccccc2)(c2ccccc2)c2ccccc2)cc1)/c1ccc(OCCCCCC[P+](c2ccccc2)(c2ccccc2)c2ccccc2)cc1.[I-].[I-] [Compound D6P] | >16 | 2 | 2 | 2 µg/mL | 2 | 1 | >16 | 8 | 1 | 13 | 18 | MIC M. abscesses [12]: 16 µg/mL
COc1cc(/C=C/c2ccc(OCCCC[P+](c3ccccc3)(c3ccccc3)c3ccccc3)c(OC)c2)ccc1OCCCC[P+](c1ccccc1)(c1ccccc1)c1ccccc1.[I-].[I-] [DM4P] | 4 | 2 | 2 | 4 µg/mL | 2 | 1 | 8 | 8 | 1 | 9 | 138 | MIC M. abscesses [12]: 8 µg/mL; MIC CaCl2 ([14]; CaCl2 1 mM): 8 µg/mL; MIC MgCl2 ([14]; MgCl2 1.25mM): 8 µg/mL; MIC NaCl ([14]; NaCl 300 mM): 4 µg/mL; MIC HSA ([14]; human serum albumin 40 g L^−1): 8 µg/mL; MIC — ([14]; no additive): 8 µg/mL; MIC CaCl2 ([15]; CaCl2 1 mM): 2 µg/mL; MIC MgCl2 ([15]; MgCl2 1.25mM): 2 µg/mL; MIC NaCl ([15]; NaCl 300 mM): 4 µg/mL; MIC HSA ([15]; human serum albumin 40 g L^−1): 2 µg/mL; MIC — ([15]; no additive): 2 µg/mL
C[N+](C)(C)CCCCCCCCOc1ccc(/C=C/c2ccc(OCCCCCCCC[N+](C)(C)C)cc2)cc1.[I-].[I-] [Compound D8, reference compound] | 32 | 8 | 8 | 4 µg/mL | 8 | 4 | 64 | >64 | 1 | 11 | – | –
CN[C@H](CC(C)C)C(=O)N[C@H]1C(=O)N[C@@H](CC(N)=O)C(=O)N[C@H]2C(=O)N[C@H]3C(=O)N[C@H](C(=O)N[C@H](C(=O)O)c4cc(O)cc(O)c4-c4cc3ccc4O)[C@H](O)c3ccc(c(Cl)c3)Oc3cc2cc(c3O[C@@H]2O[C@H](CO)[C@@H](O)[C@H](O)[C@H]2O[C@H]2C[C@](C)(N)[C@H](O)[C@H](C)O2)Oc2ccc(cc2Cl)[C@H]1O [Vancomycin, reference compound] | – | – | – | – | – | – | >128 | – | – | – | – | MIC ([1]; Acinetobacter baumannii, ATCC17978, read-out: MIC AB): > 128 µg/mL; MIC ([2]; Staphylococcus aureus, ATCC BAA-1717 / MRSA, read-out: MIC MRSA): 1 µg/mL (≈ 0.69 µM); MIC ([3]; Escherichia coli, ATCC10798, read-out: MIC EC): > 128 µg/mL; MIC ([8]; read-out: MIC FAC): 1 µg/mL (≈ 0.69 µM)
C(=C\c1ccc(OCCCC[P+](c2ccccc2)(c2ccccc2)c2ccccc2)cc1)/c1ccc(OCCCC[P+](c2ccccc2)(c2ccccc2)c2ccccc2)cc1.[I-].[I-] [Compound D4P] | 32 | 2 | 2 | 4 µg/mL and 8 µg/mL | 4 | 1 | 32 | 16 | 1 | 8 | 76 | MIC M. abscesses [12]: 32 µg/mL
